Measurements: article PMC7287031 (Pharmacology Research & Perspectives, 2020)
Read-outs that look alike come from different tables or passages of the source.

Assays:
[1] = Rat pharmacokinetic studies: plasma PK of ribociclib after single i.v. or oral dose; assay type: in vivo; conditions: for Vd: read-out: Vss; for half-life: read-out: t½ (converted)
Experimental: ADME studies (including QWBA in pigmented and non‐pigmented rats) using radiolabeled ribociclib were conducted in rat and dog. Relevant institutional and national guides for the care and use of laboratory animals were followed. […]

[2] = Dog ADME study: excretion, mass balance, metabolite profiling with radiolabeled ribociclib; assay type: in vivo
Experimental: (§1) ADME studies (including QWBA in pigmented and non‐pigmented rats) using radiolabeled ribociclib were conducted in rat and dog. Relevant institutional and national guides for the care and use of laboratory animals were followed.
(§2) Metabolite profiling was conducted on plasma, urine, bile, and feces samples in the rat and dog ADME studies, and further metabolite profiling on plasma and milk was conducted in a dedicated rat milk excretion study.
(§3) Plasma samples obtained from these studies were extracted with equal volumes of acetonitrile. Additional extractions of the protein pellet with acetonitrile and/or acetone were conducted as needed to maximize radioactivity recovery. Feces samples were initially extracted with two to four volumes of acetonitrile. Additional extractions of the pellet following centrifugation and removal of supernatant were conducted with acetonitrile and/or acetone as needed to maximize radioactivity recovery. Urine and bile samples were analyzed directly following centrifugation. Radioactivity recoveries following the centrifugation step were measured by LSC. Milk samples were extracted with two volumes of acetonitrile, following centrifugation and removal of supernatant, the pellets were re‐suspended in 100 µL of water and re‐extracted with 200 µL acetonitrile.
(§4) Metabolite profiling in the ADME studies was conducted using liquid chromatography‐mass spectrometry. Radioactivity profiles were generated by diversion of the majority of the post‐column flow into 96‐well yttrium silicate scintillation‐coated plates (Deepwell Lumaplates; Perkin Elmer Life and Analytical Sciences Inc), by means of Gilson FC204 fraction collectors (Gilson). Metabolites were identified by mass spectrometry (Waters QTOF operating under MassLynx 4.1) and, where feasible, by comparison with authentic reference standards.

[3] = Rat ADME study: excretion, mass balance, metabolite profiling with radiolabeled ribociclib; assay type: in vivo
Experimental: as §1, §2, §3, §4

[4] = In vitro plasma protein binding (ultrafiltration), human; assay type: in vitro ADME; conditions: plasma, 10-10 000 ng/mL
Experimental: (§5) Stock solutions were spiked into plasma to achieve the intended concentrations. After incubation for 1 hour at 37°C under constant gentle agitation, the spiked plasma samples (n = 3) were centrifuged (2000 g, 10 min, 37°C) in pre‐warmed Centrifree devices. Total radioactivity was determined in the ultrafiltrate (Cu, concentration of unbound compound) and in the sample introduced into the reservoir before ultrafiltration (Cp). The unbound (fu) and the bound (fb) fraction in plasma were calculated as follows: fu (%) = Cu/Cp × 100; fb (%) = 100‐Fu (%).

plasma protein = assay: as above; assay type: in vitro ADME; conditions: rat, dog
Experimental: as §5

[5] = Tissue distribution by quantitative whole-body autoradiography (QWBA); assay type: in vivo; conditions: rat QWBA
Experimental: as §1
QWBA studies were conducted with the tritium label in Hanover Wistar and partially pigmented Long‐Evans rats. A further QWBA study was conducted with the carbon‐14 label in male Long Evans rats in order to support the dosimetry calculation for the human ADME study. Briefly, 40‐µm thick lengthwise dehydrated whole body sections were exposed for 1 day to Fuji BAS III imaging plates (Fuji Photo Film Co., Ltd., J‐Tokyo) in a lead‐shielded box and room temperature, and scanned in a Fuji BAS 5000 phosphor imager at a 50‐µm scanning step. Concentrations of total radiolabeled components in the tissues were determined by comparative densitometry and digital analysis of the autoradiogram; blood samples of known radioactivity concentrations processed under the same conditions as the samples to analyze were used as calibrators.

[6] = Human ADME study: PK of ribociclib and LEQ803 in plasma and urine (validated bioanalytical assay); assay type: in vivo; conditions: for AUC(0-inf) / AUC(0-t) / Cmax / half-life: plasma, po, 600 mg
Experimental: Subjects continued to fast for 4 hours after drug administration.
Plasma aliquots at each time point were subjected to protein precipitation with three volumes of acetonitrile containing 0.1% (v:v) formic acid, followed by dilution and analysis by liquid chromatography‐tandem mass spectrometry in selected reaction monitor‐positive ion mode using heated electrospray ionization as the ionization technique. For urine aliquots, six volumes of acetonitrile containing 0.1% (v:v) formic acid were added, followed by dilution and analysis in the same way as for plasma. Components were separated using a YMC‐Triart C18 (2.0 x 30 mm, 1.9 µm) column (YMC Co. Ltd.). […] Mobile phase A was 0.1% formic acid in H2O while mobile phase B was 0.1% formic acid in ACN:Isopropanol 8:2 v:v.

[7] = female, Hanover Wistar, iv, rat f (3), i.v., 4.2 mg base/kg
[8] = female, rat f (3), po, 11.1 mg base/kg
[9] = female, rat f (4), po, 51.2 mg base/kg
[10] = male, Hanover Wistar, rat m (3), po, 9.8 mg base/kg
[11] = male, Sprague Dawley, 5 mg/kg, rat m (3), po, 5.0 mg base/kg
[12] = male, Sprague Dawley, iv, 2 mg/kg, rat m (2), i.v., 2.0 mg base/kg
[13] = oral dosing of radiolabeled ribociclib
[14] = rat, oral dosing of radiolabeled ribociclib

`CN(C)C(=O)c1cc2cnc(Nc3ccc(N4CCNCC4)cn3)nc2n1C1CCCC1` [ribociclib, Ribociclib] showed a Vd [1, 7] of 12.2 L/kg, a half-life [1, 7] of 1.9 h and an AUC(0-t) ([1]; female, Hanover Wistar, rat, iv, 4.2 mg base/kg) of 508 ng·h/mL. The clearance ([1]; female, iv, rat f (3), 4.2 mg base/kg) was 130 mL/min/kg, the Cmax [1, 8] was 59.1 ng/mL and the Tmax [1, 8] was 2 h. It also gave an AUC(0-t) ([1]; female, rat f (3), po, 11.1 mg base/kg, AUC interval 24 h) of 360 ng·h/mL, a Cmax [1, 9] of 1090 ng/mL and a Tmax [1, 9] of 0.3 h. For the same compound, the half-life [1, 9] was 2 h, the AUC(0-t) ([1]; female, rat, po, 51.2 mg base/kg) was 3100 ng·h/mL and the clearance ([1]; male, Hanover Wistar, iv, rat m (3), 4.1 mg base/kg) was 46.7 mL/min/kg. The half-life ([1]; male, Hanover Wistar, iv, rat m (3), i.v., 4.1 mg base/kg) was 3.2 h, the Cmax [1, 10] was 130 ng/mL and the Tmax [1, 10] was 4 h. For the same compound, the AUC(0-t) ([1]; male, Hanover Wistar, rat m (3), po, 9.8 mg base/kg, AUC interval 24 h) was 1340 ng·h/mL, the AUC(0-t) ([1]; male, Hanover Wistar, rat, iv, 4.1 mg base/kg) was 1440 ng·h/mL and the Cmax [1, 11] was 126 ng/mL. The Tmax [1, 11] was 2 h, the bioavailability [1, 11] was 55% and the Vd [1, 12] was 9.9 L/kg. It also gave a half-life [1, 12] of 2.8 h, an AUC(0-t) ([1]; male, Sprague Dawley, rat, iv, 2 mg/kg) of 587 ng·h/mL and an AUC(0-t) ([1]; male, Sprague Dawley, rat, po, 5 mg/kg) of 672 ng·h/mL. It also gave a clearance ([1]; male, iv, rat m (2), 2.0 mg base/kg) of 51.7 mL/min/kg, a Vd ([1]; male, iv, rat m (3), i.v., 4.1 mg base/kg) of 7.9 L/kg and a bioavailability ([1]; male, rat m (3), po, 9.8 mg base/kg) of 37%. For the same compound, the “Recovery of radioactivity in mass balance study” value [2] was “approximately 90%”, the “radioactivity found in feces” value [2, 13] was 68.8% and the “radioactivity found in urine” value [2, 13] was 18.5%. The ribociclib in feces ([2]; p.o.) was 10.7 % of the oral dose, the “unchanged ribociclib in urine” value ([2]; p.o.) was 13.4 % of the dose and the “Recovery of radioactivity in mass balance study” value ([3]; rat) was “approximately 90%”. The Absorption ([3]; rat ADME study, derived from AUC of total radiolabeled components after i.v. and p.o. dosing) was 66%, the “dose eliminated in bile (radioactivity)” value ([3]; rat, i.v.) was 61.4 % of dose and the “ribociclib in feces of bile duct-cannulated rats” value ([3]; rat, i.v.) was 8 % of the dose. The “unchanged ribociclib recovered in bile” value ([3]; rat, i.v.) was 1 % of the dose, the “radioactivity found in feces” value [3, 14] was 84.0% and the “radioactivity found in urine” value [3, 14] was 5.9%. For the same compound, the ribociclib in feces ([3]; rat, p.o.) was 22.4 % of the oral dose, the “unchanged ribociclib in urine” value ([3]; rat, p.o.) was 2.7 % of the dose and the fraction unbound at 1 h [4] was 0.3 ± 0.02. The “difference in unbound fraction in plasma between species” value (plasma protein) was “up to 1.7 fold”, the “time of last measurable concentration (total radioactivity)” value (“time of last measurable concentration” for short) ([5]; 52 of 58 tissues investigated) was no more than 48 h and the “time of last measurable concentration” value ([5]; eyes and meninges, last observation time point) was 840 h. The “tissue distribution of total radioactivity” value ([5]; intravenous or oral dose) was “marked distribution into the extravascular compartment, except for brain”, the “time of last measurable concentration” value ([5]; lymph nodes, preputial gland, testis) was 168 h and the “Ribociclib in urine by validated bioanalytical assay” value ([6]; human) was 6.75 % of the dose. The “renal clearance lower than non-renal clearance” value ([6]; human) was “more than 10 fold”, the Tmax ([6]; human plasma, bioanalytical assay, single oral 600 mg, N=6, read-out: tmax, median (range)) was 1.75 h and the AUC(0-inf) ([6]; human, human plasma, bioanalytical assay, single oral 600 mg, N=6, read-out: AUCinf, arithmetic mean (CV %)) was 8700 ng·h/mL. For the same compound, the AUC(0-inf) ([6]; human, human plasma, bioanalytical assay, single oral 600 mg, N=6, read-out: AUCinf, median) was 8880 ng·h/mL, the AUC(0-t) ([6]; human, human plasma, bioanalytical assay, single oral 600 mg, N=6, read-out: AUClast, arithmetic mean (CV %)) was 8600 ng·h/mL and the AUC(0-t) ([6]; human, human plasma, bioanalytical assay, single oral 600 mg, N=6, read-out: AUClast, median) was 8780 ng·h/mL. It also gave a Cmax ([6]; human, human plasma, bioanalytical assay, single oral 600 mg, N=6, read-out: Cmax, arithmetic mean (CV %)) of 507 ng/mL, a Cmax ([6]; human, human plasma, bioanalytical assay, single oral 600 mg, N=6, read-out: Cmax, median) of 518 ng/mL and a half-life ([6]; human, human plasma, bioanalytical assay, single oral 600 mg, N=6, read-out: t½, arithmetic mean (CV %) (converted)) of 54.7 h. For the same compound, the half-life ([6]; human, human plasma, bioanalytical assay, single oral 600 mg, N=6, read-out: t½, median (converted)) was 49.4 h, the “CL/F, median” value ([6]; human, single oral 600 mg) was 70.2 L/h and the CL renal ([6]; male, plasma and urine, human, single oral 600 mg, read-out: renal clearance, median (converted)) was 92.5 mL/min.
